This note sets out measurements from ChEMBL document CHEMBL5131564, “Discovery of Potent and Selective Receptor-Interacting Serine/Threonine Protein Kinase 2 (RIPK2) Inhibitors for the Treatment of Inflammatory Bowel Diseases (IBDs)” (J Med Chem, 2022).

Usually IC50 stands for the concentration that gives 50% inhibition. The term Kd denotes the constant that tells how readily two partners part at equilibrium. Read a low Kd as tighter binding. The Cmax is the maximum level reached in the sampled fluid or tissue. As a reminder, the AUC(0-t) is exposure summed from dosing to a finite time, without extrapolation to infinity. Higher therefore signals more exposure. In general, half-life refers to how long it takes for the measured level to halve. One may read the bioavailability as the share of a dose that reaches the circulation, judged against a reference dose that is usually intravenous. Higher therefore signals good availability.

Structures are written as SMILES. Activity calls are given as the source filed them. The rule behind the calls is not given here.

In data set [1] the target is T1, Receptor-type tyrosine-protein kinase FLT3 (Homo sapiens, UniProt P36888).
T1 sequence (P36888 whole entry): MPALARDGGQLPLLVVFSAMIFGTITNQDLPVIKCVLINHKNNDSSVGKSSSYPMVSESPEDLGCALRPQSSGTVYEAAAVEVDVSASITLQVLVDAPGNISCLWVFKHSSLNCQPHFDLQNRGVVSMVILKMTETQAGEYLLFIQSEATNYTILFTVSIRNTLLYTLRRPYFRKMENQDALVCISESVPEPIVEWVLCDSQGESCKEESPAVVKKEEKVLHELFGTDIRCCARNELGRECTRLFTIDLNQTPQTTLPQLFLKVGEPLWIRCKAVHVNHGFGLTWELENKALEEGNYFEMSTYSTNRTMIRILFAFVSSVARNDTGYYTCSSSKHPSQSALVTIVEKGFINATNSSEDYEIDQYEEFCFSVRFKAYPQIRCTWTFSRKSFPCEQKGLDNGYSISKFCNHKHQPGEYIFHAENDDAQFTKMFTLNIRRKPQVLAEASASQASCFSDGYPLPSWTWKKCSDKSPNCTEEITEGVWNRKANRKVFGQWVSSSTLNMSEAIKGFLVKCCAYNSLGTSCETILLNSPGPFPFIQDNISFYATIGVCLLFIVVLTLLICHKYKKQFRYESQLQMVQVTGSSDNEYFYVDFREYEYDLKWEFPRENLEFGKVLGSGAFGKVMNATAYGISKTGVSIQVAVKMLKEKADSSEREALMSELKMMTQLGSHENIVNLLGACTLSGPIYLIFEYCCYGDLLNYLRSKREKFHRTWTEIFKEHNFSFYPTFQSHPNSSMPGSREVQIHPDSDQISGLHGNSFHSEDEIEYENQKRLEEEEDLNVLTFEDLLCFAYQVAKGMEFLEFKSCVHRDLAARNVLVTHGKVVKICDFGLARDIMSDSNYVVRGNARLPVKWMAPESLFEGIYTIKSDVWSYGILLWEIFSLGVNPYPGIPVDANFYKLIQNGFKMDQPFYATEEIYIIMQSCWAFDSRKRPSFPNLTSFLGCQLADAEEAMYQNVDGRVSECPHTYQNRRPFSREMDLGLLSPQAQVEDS
In words: Inhibition of human FLT3 by kinase assay.

Data set [2] deals with Mus musculus. In words: Anti-inflammatory activity against DSS-induced acute ulcerative colitis C57BL/6 mouse model assessed as recovery of weight loss at 20 mg/kg, po for 6 consecutive days. It counts as functional, organism-based.
A short description of data set [3]: Toxicity in rat H9c2 cells assessed as inhibitory rate. Format: cell-based.
In data set [4] the test system is Mus musculus. Kind of data set: Anti-inflammatory activity against DSS-induced acute ulcerative colitis C57BL/6 mouse model assessed as reduction in disease severity at 20 to 40 mg/kg, po once a day measured after 2 days followed by 7 days after DSS treatment. It counts as functional, organism-based. The following applies: dose 20-40 mg/kg, time 2.0 day.
The target in data set [5] is Mast/stem cell growth factor receptor Kit (Homo sapiens, UniProt P10721). In words: Inhibition of human KIT by kinase assay.
Mast/stem cell growth factor receptor Kit, sequence (P10721 whole entry): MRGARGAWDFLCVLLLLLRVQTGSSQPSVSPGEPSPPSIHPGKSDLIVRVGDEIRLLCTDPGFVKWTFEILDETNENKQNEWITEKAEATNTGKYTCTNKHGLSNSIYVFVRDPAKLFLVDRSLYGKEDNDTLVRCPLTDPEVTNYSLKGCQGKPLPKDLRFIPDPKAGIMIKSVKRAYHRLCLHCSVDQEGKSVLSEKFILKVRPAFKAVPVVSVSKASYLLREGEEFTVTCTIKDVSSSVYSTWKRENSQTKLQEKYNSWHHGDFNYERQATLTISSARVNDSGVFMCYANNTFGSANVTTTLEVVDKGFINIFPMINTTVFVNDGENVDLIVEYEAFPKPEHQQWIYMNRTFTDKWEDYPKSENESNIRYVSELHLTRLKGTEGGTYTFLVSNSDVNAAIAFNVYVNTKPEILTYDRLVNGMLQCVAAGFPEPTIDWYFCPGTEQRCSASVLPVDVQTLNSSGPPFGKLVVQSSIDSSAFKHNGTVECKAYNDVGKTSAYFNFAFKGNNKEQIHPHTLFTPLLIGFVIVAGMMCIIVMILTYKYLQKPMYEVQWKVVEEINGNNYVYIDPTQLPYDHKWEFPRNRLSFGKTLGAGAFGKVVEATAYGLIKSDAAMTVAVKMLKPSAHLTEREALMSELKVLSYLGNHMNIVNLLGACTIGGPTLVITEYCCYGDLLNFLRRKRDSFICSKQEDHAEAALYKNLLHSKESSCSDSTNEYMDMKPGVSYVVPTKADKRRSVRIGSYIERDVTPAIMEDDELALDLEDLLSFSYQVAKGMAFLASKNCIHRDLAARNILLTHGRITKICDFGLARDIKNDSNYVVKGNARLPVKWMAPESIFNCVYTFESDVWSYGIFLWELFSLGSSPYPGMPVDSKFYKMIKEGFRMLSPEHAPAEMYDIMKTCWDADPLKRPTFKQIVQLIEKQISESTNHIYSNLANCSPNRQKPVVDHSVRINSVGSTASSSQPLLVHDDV
For a further data set, the system named is RAW264.7. In words: Inhibition of MDP-stimulated TNFalpha production in mouse RAW264.7 cells assessed as TNFalpha mRNA level upto 50 nM incubated for 22 hrs by real-time PCR analysis. It counts as functional, cell-based. Background: In qPCR the cycle at which signal appears reflects the starting amount.
The nature of data set [6]: Drug uptake in DSS-induced acute ulcerative colitis C57BL/6 mouse model assessed as drug concentration in colon at 20 mg/kg, po after 0.5 hrs. It counts as ADME, organism-based. The following applies: read-out: Drug uptake.
Data set [7] addresses Platelet-derived growth factor receptor beta (Homo sapiens, UniProt P09619). Kind of data set: Inhibition of human PDGFRbeta by kinase assay.
Data set [8] addresses Receptor-interacting serine/threonine-protein kinase 2 (Homo sapiens, UniProt O43353). Kind of data set: Binding affinity to human RIPK2 in HEK293 cells. It counts as cell-based.
The nature of data set [9]: Drug uptake in DSS-induced acute ulcerative colitis C57BL/6 mouse model assessed as drug concentration in colon at 20 mg/kg, po after 8 hrs. Format: ADME, organism-based. The settings on record: read-out: Drug uptake.
The nature of data set [10]: Cmax in Balb/C mouse at 10 mg/kg, iv measured upto 48 hrs by LC-MS/MS analysis. Format: ADME, organism-based. More on the design: dose 10 mg/kg, time < 48 hrs, route iv. The following applies: in vivo.
Data set [11] is described as follows: AUC (0 to t) in Balb/C mouse at 10 mg/kg, po measured upto 48 hrs by LC-MS/MS analysis. Format: ADME, organism-based. Further details: time < 48 hrs, dose 10 mg/kg, route po. The following applies: in vivo.
The target in data set [12] is T2, Receptor-interacting serine/threonine-protein kinase 4 (Homo sapiens, UniProt P57078).
T2 sequence (P57078 whole entry): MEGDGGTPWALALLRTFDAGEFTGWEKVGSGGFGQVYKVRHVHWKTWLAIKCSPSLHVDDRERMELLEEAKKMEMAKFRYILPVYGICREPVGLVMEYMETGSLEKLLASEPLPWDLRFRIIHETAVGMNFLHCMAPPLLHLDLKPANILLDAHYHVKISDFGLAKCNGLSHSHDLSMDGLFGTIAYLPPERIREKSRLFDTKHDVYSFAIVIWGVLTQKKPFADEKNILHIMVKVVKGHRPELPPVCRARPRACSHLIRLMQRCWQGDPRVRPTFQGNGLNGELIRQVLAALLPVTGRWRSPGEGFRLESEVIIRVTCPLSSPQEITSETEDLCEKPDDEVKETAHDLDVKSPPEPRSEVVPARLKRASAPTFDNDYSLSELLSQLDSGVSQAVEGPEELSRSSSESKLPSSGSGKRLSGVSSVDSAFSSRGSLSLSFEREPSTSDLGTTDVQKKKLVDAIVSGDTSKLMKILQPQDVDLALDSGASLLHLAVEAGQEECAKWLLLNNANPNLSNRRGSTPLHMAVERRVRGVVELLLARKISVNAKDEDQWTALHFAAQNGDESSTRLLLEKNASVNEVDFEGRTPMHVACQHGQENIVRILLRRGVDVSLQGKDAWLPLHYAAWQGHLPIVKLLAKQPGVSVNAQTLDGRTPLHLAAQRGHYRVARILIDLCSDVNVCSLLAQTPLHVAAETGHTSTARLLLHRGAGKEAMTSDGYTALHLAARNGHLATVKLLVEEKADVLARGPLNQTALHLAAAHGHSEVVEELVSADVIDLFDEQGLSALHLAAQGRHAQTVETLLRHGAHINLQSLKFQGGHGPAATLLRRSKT
In words: Binding affinity to human RIPK4.

Data set [13] in a line: Volume of distribution in Balb/C mouse at 10 mg/kg, po measured upto 48 hrs by LC-MS/MS analysis. It counts as ADME, organism-based. The settings on record: in vivo.
Data set [14] has as its target Serine/threonine-protein kinase SIK1 (Homo sapiens, UniProt P57059). Kind of data set: Inhibition of human SIK by kinase assay.
A short description of data set [15]: Metabolic stability in human liver microsomes assessed as half life at 1 uM by LC/MS/MS analysis. It counts as ADME, Microsome.
The test system of data set [16] is Mus musculus. Kind of data set: Anti-inflammatory activity against DSS-induced acute ulcerative colitis C57BL/6 mouse model assessed as reduction in watery stools at 20 to 40 mg/kg, po once a day measured after 2 days followed by 7 days after DSS treatment. It counts as functional, organism-based. The settings on record: dose 20-40 mg/kg, time 2.0 day.
Another data set has as its system BMDM. In words: Cytotoxicity against mouse BMDM cells at 62.5 to 250 nM in presence of NOD. Format: toxicity, cell-based. The following applies: 0.25 µM, dose 62.5-250 nM.
Data set [17] is described as follows: Oral bioavailability in Balb/C mouse at 10 mg/kg measured upto 48 hrs by LC-MS/MS analysis. It counts as ADME, organism-based. The settings on record: in vivo.

Serine/threonine-protein kinase SIK1, sequence (P57059 whole entry): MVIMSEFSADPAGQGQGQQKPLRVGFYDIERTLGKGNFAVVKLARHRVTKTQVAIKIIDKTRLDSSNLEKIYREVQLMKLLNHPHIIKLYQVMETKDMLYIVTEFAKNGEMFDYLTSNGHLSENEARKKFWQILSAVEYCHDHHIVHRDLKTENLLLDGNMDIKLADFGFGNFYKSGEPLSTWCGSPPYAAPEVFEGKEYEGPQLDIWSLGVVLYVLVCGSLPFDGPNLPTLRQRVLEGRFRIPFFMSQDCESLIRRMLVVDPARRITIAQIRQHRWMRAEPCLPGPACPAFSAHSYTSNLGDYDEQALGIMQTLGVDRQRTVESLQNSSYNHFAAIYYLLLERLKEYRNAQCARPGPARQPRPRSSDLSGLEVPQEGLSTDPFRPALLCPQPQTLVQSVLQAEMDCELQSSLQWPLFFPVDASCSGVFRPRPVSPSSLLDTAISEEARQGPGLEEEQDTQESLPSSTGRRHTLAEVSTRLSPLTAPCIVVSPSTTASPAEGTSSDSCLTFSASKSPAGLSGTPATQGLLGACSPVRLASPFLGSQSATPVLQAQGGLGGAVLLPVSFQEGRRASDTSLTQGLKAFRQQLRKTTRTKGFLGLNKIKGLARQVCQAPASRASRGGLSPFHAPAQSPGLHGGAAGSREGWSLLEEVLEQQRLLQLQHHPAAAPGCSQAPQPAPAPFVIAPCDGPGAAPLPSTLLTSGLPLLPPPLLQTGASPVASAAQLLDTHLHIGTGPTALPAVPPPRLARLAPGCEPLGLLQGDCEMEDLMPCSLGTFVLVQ
Platelet-derived growth factor receptor beta, sequence (P09619 whole entry): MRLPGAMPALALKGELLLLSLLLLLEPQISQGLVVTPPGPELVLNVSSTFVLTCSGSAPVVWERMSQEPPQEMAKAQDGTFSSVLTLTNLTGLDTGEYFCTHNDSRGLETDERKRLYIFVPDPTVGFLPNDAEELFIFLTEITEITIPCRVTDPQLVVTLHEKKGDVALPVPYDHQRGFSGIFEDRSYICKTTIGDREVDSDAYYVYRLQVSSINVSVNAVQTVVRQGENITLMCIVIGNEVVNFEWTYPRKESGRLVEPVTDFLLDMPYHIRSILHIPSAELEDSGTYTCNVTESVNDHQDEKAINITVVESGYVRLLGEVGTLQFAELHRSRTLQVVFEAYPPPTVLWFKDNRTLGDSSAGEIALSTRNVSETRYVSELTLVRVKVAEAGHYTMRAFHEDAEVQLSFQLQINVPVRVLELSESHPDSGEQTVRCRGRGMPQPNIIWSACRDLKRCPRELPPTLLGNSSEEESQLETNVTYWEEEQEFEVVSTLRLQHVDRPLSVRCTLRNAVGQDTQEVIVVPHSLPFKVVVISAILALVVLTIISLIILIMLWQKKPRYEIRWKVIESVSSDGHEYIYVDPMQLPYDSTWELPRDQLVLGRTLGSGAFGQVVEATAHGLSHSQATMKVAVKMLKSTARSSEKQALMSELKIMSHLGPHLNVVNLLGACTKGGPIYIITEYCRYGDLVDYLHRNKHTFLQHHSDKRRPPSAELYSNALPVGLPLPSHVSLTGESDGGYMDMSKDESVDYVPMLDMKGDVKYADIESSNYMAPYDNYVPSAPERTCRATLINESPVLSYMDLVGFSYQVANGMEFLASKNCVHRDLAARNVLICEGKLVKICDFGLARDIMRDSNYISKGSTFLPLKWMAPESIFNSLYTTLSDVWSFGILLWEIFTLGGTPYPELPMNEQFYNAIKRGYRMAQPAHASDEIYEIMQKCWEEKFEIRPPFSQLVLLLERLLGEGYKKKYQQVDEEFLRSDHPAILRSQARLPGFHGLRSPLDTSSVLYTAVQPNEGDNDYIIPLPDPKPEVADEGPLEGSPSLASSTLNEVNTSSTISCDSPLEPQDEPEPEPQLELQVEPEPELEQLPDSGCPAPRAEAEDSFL
Receptor-interacting serine/threonine-protein kinase 2, sequence (O43353 whole entry): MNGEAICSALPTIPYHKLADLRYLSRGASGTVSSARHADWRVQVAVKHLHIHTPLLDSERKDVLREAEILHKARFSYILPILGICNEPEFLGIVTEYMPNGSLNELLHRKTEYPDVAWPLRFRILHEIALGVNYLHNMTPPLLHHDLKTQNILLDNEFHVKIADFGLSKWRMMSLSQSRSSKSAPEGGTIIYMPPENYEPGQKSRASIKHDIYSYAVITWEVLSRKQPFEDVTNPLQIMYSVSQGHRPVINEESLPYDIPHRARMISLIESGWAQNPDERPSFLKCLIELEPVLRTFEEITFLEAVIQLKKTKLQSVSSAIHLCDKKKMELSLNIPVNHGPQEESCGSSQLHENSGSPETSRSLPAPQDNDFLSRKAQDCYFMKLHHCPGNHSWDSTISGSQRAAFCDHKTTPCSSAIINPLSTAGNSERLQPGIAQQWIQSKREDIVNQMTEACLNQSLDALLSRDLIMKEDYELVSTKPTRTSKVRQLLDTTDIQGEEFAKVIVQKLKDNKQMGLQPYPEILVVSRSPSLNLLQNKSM

For `Cc1ccc(-c2cn([C@H]3CC[C@@H](N)CC3)c3ncnc(N)c23)c(F)c1`, the IC50 in data set [1] was found to be 4.79 µM; in data set [3] it was 12.3 µM; in [5] it was 1.51 µM; in data set [7], 0.862 µM; in data set [14] it was 0.089 µM. For the same molecule, the outcome with Mus musculus [2], in the data set with Mus musculus [4] and in the data set with Mus musculus [16] was Active. Also, the inhibition result in the data set with RAW264.7 was “Active”. Moreover, the concentration at 0.5 h in [6] was 3620 ng/g. Further, the Kd stood at 0.00028 µM in data set [8] and 2.3 µM in [12]. Also, in [9], the concentration at 8 h was 9140 ng/g. Besides, in [10], the highest level (Cmax) was 959 ng/mL. In data set [11], this molecule yielded an AUC(0-t) at 48 h of 151 ng·h/mL. Also, in data set [13], the Vd came out at 333.24 L/kg. In data set [15], the half-life at 1 µM is more than 2 h. Also, the Activity entry in the data set on BMDM was “Non-Toxic”. In addition, in data set [17], the bioavailability amounted to 15.1%.
